Measurements as given in patent US11332459B2 (TEIJIN PHARMA LIMITED, priority 2017, dated 2022).
Counter-ions that a name gives are not always drawn.

These compounds were tested against T1, human TRPC6 (Homo sapiens, UniProt Q9Y210) (assay: TRPC6 calcium flux assay (FLIPR, OAG-stimulated calcium influx)). Conditions: HEK293 cells stably transfected with human TRPC6, read-out: hTRPC6 Potency.
T1 construct: expressed in transfected cells
T1 sequence (Q9Y210 1-931): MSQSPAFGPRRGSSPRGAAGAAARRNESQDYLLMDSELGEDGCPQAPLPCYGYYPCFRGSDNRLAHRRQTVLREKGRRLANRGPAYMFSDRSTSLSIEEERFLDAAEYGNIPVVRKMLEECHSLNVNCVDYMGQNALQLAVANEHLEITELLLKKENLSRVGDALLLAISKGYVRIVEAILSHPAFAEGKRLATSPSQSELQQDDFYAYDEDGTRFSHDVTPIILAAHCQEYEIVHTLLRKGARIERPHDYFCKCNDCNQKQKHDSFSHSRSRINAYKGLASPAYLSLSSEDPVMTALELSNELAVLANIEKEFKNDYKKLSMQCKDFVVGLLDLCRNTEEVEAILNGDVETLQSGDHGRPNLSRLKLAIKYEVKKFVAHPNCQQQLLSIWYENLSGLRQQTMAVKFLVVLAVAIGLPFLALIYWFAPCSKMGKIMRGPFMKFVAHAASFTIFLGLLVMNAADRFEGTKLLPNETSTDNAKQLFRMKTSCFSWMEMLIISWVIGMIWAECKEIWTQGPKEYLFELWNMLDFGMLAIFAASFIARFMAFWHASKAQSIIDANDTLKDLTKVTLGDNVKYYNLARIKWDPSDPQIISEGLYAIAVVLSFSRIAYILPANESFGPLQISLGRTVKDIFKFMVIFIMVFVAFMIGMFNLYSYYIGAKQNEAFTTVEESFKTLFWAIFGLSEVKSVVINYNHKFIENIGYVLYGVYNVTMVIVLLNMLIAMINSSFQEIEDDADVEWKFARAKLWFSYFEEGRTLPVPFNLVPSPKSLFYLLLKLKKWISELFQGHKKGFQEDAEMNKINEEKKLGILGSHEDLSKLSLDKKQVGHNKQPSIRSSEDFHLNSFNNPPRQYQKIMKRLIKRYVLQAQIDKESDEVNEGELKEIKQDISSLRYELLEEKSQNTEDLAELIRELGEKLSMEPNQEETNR
Type: cell-based
Summary of the method: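 IC50 derived by plotting background-corrected peak fluorescence (180 s window, normalized to OAG-triggered signal vs buffer) against dose. Stable human TRPC6 HEK293 line was dye-loaded, exposed to compound 25 min, then challenged with 50 uM final OAG in 2 mM Ca2+ HEPES buffer pH 7.2, 0.5% DMSO.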
`C[C@@H](c1ccc(Cl)cn1)n1c(N2CC[C@@H](F)[C@H](N)C2)nc2ccc(Cl)cc21` [Example 222, (3R,4R)-1-(6-chloro-1-((S)-1-(5-chloropyridin-2-yl)ethyl)-1H-benzo[d]imidazol-2-yl)-4-fluoropiperidin-3-amine hydrochloride] was tested, and the IC50 was 2.04 nM.
With `N[C@@H]1CN(c2nc3cc(F)c(F)cc3n2Cc2ccc(Cl)cn2)CC[C@H]1F` [Example 227, (3R,4R)-1-(1-((5-chloropyridin-2-yl)methyl)-5,6-difluoro-1H-benzo[d]imidazol-2-yl)-4-fluoropiperidin-3-amine hydrochloride] the IC50 was 0.328 nM.
`C[C@@H]1CCN(c2nc3ccccc3n2Cc2ccc(C#N)cc2)C[C@H]1N` [Example 181, 4-((2-((3S,4R)-3-amino-4-methylpiperidin-1-yl)-1H-benzo[d]imidazol-1-yl)methyl)benzonitrile 2,2,2-trifluoroacetate] showed an IC50 of 0.907 nM.
`CN(C(=O)Cn1c(N2CC[C@@H](F)[C@H](N)C2)nc2ccc(F)cc21)[C@@H]1CCOC1` [Example 665, 2-(2-((3R,4R)-3-amino-4-fluoropiperidin-1-yl)-6-fluoro-1H-benzo[d]imidazol-1-yl)-N-methyl-N-((R)-tetrahydrofuran-3-yl)acetamide] gave an IC50 of 584 nM.
With `N#Cc1cc(F)cc2c1nc(N1CC[C@H](F)[C@H](N)C1)n2Cc1ncc(F)cn1` [Example 36, 2-((3R,4S)-3-amino-4-fluoropiperidin-1-yl)-6-fluoro-1-((5-fluoropyrimidin-2-yl)methyl)-1H-benzo[d]imidazole-4-carbonitrile] the IC50 was 6.13 nM.
`N#Cc1ccc(Cn2c(N3CCC(F)(F)[C@H](N)C3)nc3cc(Cl)ccc32)nc1` [Example 13, (R)-6-((2-(3-amino-4,4-difluoropiperidin-1-yl)-5-chloro-1H-benzo[d]imidazol-1-yl)methyl)nicotinonitrile] was tested, and the IC50 was 6.87 nM.
Compound `N#Cc1ccc(Cn2c(N3CCC[C@@H](N)C3)nc3ccccc32)c(Cl)c1` [Example 394, (R)-4-((2-(3-aminopiperidin-1-yl)-1H-benzo[d]imidazol-1-yl)methyl)-3-chlorobenzonitrile] has an IC50 of 732 nM.
Work on `N#Cc1ccc2nc(N3CC[C@@H](F)[C@H](N)C3)n(Cc3ccc(F)cn3)c2c1` [Example 190, 2-((3R,4R)-3-amino-4-fluoropiperidin-1-yl)-1-((5-fluoropyridin-2-yl)methyl)-1H-benzo[d]imidazole-6-carbonitrile] yielded an IC50 of 4.02 nM.
`N#Cc1ccc(Cn2c(N3CC[C@@H](F)[C@H](N)C3)nc3ncc(Cl)cc32)nc1` [Example 93, 6-((2-((3R,4R)-3-amino-4-fluoropiperidin-1-yl)-6-chloro-1H-imidazo[4,5-b]pyridin-1-yl)methyl)nicotinonitrile] showed an IC50 of 6.85 nM.
For `N#Cc1ccc(Cn2c(N3CC[C@H](F)[C@H](N)C3)nc3cc(F)c(F)cc32)nc1` [Example 83, 6-((2-((3R,4S)-3-amino-4-fluoropiperidin-1-yl)-5,6-difluoro-1H-benzo[d]imidazol-1-yl)methyl)nicotinonitrile hydrochloride], the IC50 was 0.906 nM.
`CCN(C)C(=O)Cn1c(N2CC[C@@H](F)[C@H](N)C2)nc2cc(F)c(F)cc21` [Example 605, 2-(2-((3R,4R)-3-amino-4-fluoropiperidin-1-yl)-5,6-difluoro-1H-benzo[d]imidazol-1-yl)-N-ethyl-N-methylacetamide] showed an IC50 of 7.9 nM.
For `Cc1cnc(Cn2c(N3CC[C@@H](F)[C@H](N)C3)nc3cc(F)c(F)cc32)s1` [Example 551, (3R,4R)-1-(5,6-difluoro-1-((5-methylthiazol-2-yl)methyl)-1H-benzo[d]imidazol-2-yl)-4-fluoropiperidin-3-amine], the IC50 was 6.1 nM.
Work on `N#Cc1ccc(Cn2c(N3C[C@H]4C[C@@]4(CN)C3)nc3ccccc32)nc1` [Example 74, 6-((2-((1R,5S)-1-(aminomethyl)-3-azabicyclo[3.1.0]hexan-3-yl)-1H-benzo[d]imidazol-1-yl)methyl)nicotinonitrile hydrochloride] yielded an IC50 of 380 nM.
In the case of `Cc1nnc(Cn2c(N3CC[C@@H](F)[C@H](N)C3)nc3cc(F)cc(F)c32)s1` [Example 599, (3R,4R)-1-(5,7-difluoro-1-((5-methyl-1,3,4-thiadiazol-2-yl)methyl)-1H-benzo[d]imidazal-2-yl)-4-fluoropiperidin-3-amine], the IC50 is reported as over 3750 nM.
In the case of `N[C@@H]1CN(c2nc3cc(Br)ccc3n2CC(=O)N2CCC2)CC[C@H]1F` [Example 470, 2-(2-((3R,4R)-3-amino-4-fluoropiperidin-1-yl)-5-bromo-1H-benzo[d]imidazol-1-yl)-1-(azetidin-1-yl)ethan-1-one], the IC50 is reported as 219 nM.
`N#Cc1ccc(Cn2c(N3CCC[C@H](N)C3)nc3c(F)cc(F)cc32)nc1` [Example 61, (S)-6-((2-(3-aminopiperidin-1-yl)-4,6-difluoro-1H-benzo[d]imidazol-1-yl)methyl)nicotinonitrile] was tested, and the IC50 was 2.7 nM.
Compound `CC(C)NC(=O)Cn1c(N2CC[C@@H](F)[C@H](N)C2)nc2cc(F)c(F)cc21` [Example 235, 2-(2-((3R,4R)-3-amino-4-fluoropiperidin-1-yl)-5,6-difluoro-1H-benzo[d]imidazol-1-yl)-N-isopropylacetamide] has an IC50 of 150 nM.
Compound “4-((2-((3R,4R)-3-amino-4-hydroxypiperidin-1-yl)-1H-benzo[d]imidazol-1-yl)methyl)benzonitrile compound with 4-((2-((3S,4S)-3-amino-4-hydroxypiperidin-1-yl)-1H-benzo[d]imidazol-1-yl)methyl)benzonitrile (1:1) dihydrochloride [Example 155]” has an IC50 of 16.2 nM.
`CN[C@@H]1CN(c2nc3cc(F)ccc3n2CC(=O)N(C)CC(F)(F)F)CC[C@H]1F` [Example 479, 2-(5-fluoro-2-((3R,4R)-4-fluoro-3-(methylamino)piperidin-1-yl)-1H-benzo[d]imidazol-1-yl)-N-methyl-N-(2,2,2-trifluoroethyl)acetamide] showed an IC50 of 1200 nM.
Compound `N#Cc1ccc(Cn2c(N3CC[C@@H](F)[C@H](N)C3)nc3cc(Cl)cnc32)nc1` [Example 92, 6-((2-((3R,4R)-3-amino-4-fluoropiperidin-1-yl)-6-chloro-3H-imidazo[4,5-b]pyridin-3-yl)methyl)nicotinonitrile] has an IC50 of 43.8 nM.
Work on `N#Cc1ccc(Cn2c(N3CCC[C@H](N)C3)nc3cccnc32)cc1` [Example 419, (S)-4-((2-(3-aminopiperidin-1-yl)-3H-imidazo[4,5-b]pyridin-3-yl)methyl)benzonitrile hydrochloride] yielded an IC50 of 128 nM.
Compound `N#Cc1cccc(Cn2c(N3CC[C@@H](F)[C@H](N)C3)nc3cc(F)c(F)cc32)c1` [Example 366, 3-((2-((3R,4R)-3-amino-4-fluoro-1-piperidinyl)-5,6-difluoro-1H-benzimidazol-1-yl)methyl)benzonitrile] has an IC50 of 232 nM.
`C[C@H](c1ccc(C#N)cn1)n1c(N2CC[C@H]3OCCN[C@@H]3C2)nc2cc(F)cc(F)c21` [Example 271, 6-((1R)-1-(5,7-difluoro-2-((4aR,8aR)-hexahydro-2H-pyrido[4,3-b][1,4]oxazin-6(5H)-yl)-1H-benzimidazol-1-yl)ethyl)-3-pyridinecarbonitrile] was tested, and the IC50 was 158 nM.
Work on `C[C@@H](c1ccc(Cl)cn1)n1c(N2CC[C@@H](F)[C@H](N)C2)nc2cc(F)c(F)cc21` [Example 218, (3R,4R)-1-(1-((S)-1-(5-chloropyridin-2-yl)ethyl)-5,6-difluoro-1H-benzo[d]imidazol-2-yl)-4-fluoropiperidin-3-amine hydrochloride] yielded an IC50 of 0.82 nM.
Compound `CC(F)(F)c1ccc(Cn2c(N3CC[C@@H](F)[C@H](N)C3)nc3cc(F)c(F)cc32)cc1` [Example 344, (3R,4R)-1-(1-(4-(1,1-difluoroethyl)benzyl)-5,6-difluoro-1H-benzimidazol-2-yl)-4-fluoro-3-piperidinamine] has an IC50 of 85.3 nM.
In the case of `N[C@H]1CCCN(c2nc3ccccc3n2Cc2ccc(C(=O)O)cn2)C1` [Example 434, (S)-6-((2-(3-aminopiperidin-1-yl)-1H-benzo[d]imidazol-1-yl)methyl)nicotinic acid], the IC50 is reported as over 3750 nM.
`CC(=O)N1CCN(C(=O)Cn2c(N3CC[C@@H](F)[C@H](N)C3)nc3cc(F)c(F)cc32)CC1` [Example 540, 1-(4-acetylpiperazin-1-yl)-2-(2-((3R,4R)-3-amino-4-fluoropiperidin-1-yl)-5,6-difluoro-1H-benzo[d]imidazol-1-yl)ethan-1-one] was tested, and the IC50 was over 3750 nM.
For `N#Cc1ccc(Cn2c(N3CC[C@H](O)[C@H](N)C3)nc3ccc(F)cc32)nc1` [Example 311, 6-((2-((3R,4S)-3-amino-4-hydroxypiperidin-1-yl)-6-fluoro-1H-benzo[d]imidazol-1-yl)methyl)nicotinonitrile], the IC50 was 217 nM.
